# Source: patent US10087170B2, “Compound, photosensitive resin composition including the same, and color filter” (SAMSUNG SDI CO., LTD., priority 2016, dated 2018)
# Assay: Evaluation 1: Solubility in organic solvents
# Type: physicochemical
# Conditions: 0.5 g compound, stirred at 25° C. and 100 rpm for 1 hour; for Amount of dissolved compound (wt %) Chloroform: solvent chloroform; for Amount of dissolved compound (wt %) Diacetone alcohol: solvent diacetone alcohol
# From the text: Solubility Evaluation Reference
# X: solubility of less than 1 wt %
# ∘: solubility of greater than or equal to 1 wt % and less than 5 wt %
# ⊚: solubility of greater than or equal to 5 wt %
Structure (SMILES),Amount of dissolved compound (wt %) Chloroform,Amount of dissolved compound (wt %) Diacetone alcohol
CCN(CCOC(=O)CCCCCCC(=O)OCCN(CC)c1ccc2c(-c3ccccc3S(=O)(=O)[O-])c3ccc(=[N+](CC)CC)cc-3oc2c1)c1ccc2c(-c3ccccc3S(=O)(=O)[O-])c3ccc(=[N+](CC)CC)cc-3oc2c1 [Chemical Formula 10],◯ (solubility of greater than or equal lo 1 wt % and less than 5 wt %),◯ (solubility of greater than or equal lo 1 wt % and less than 5 wt %)
C=C(C)C(=O)OCC[N+](CC)=c1ccc2c(-c3ccccc3S(=O)(=O)[O-])c3ccc(N(CC)CCCCCCN(CC)c4ccc5c(-c6ccccc6S(=O)(=O)[O-])c6ccc(=[N+](CC)CCOC(=O)C(=C)C)cc-6oc5c4)cc3oc-2c1 [Chemical Formula 18],⊚ (solubility of greater than or equal to 5 wt %),⊚ (solubility of greater than or equal to 5 wt %)
C=C(C)C(=O)OCC[N+](CC)=c1ccc2c(-c3ccccc3S(=O)(=O)[O-])c3ccc(N(CC)CCCCCCN(CC)c4ccc5c(-c6ccccc6S(=O)(=O)[O-])c6ccc(=[N+](CC)CC)cc-6oc5c4)cc3oc-2c1 [Chemical Formula 20],⊚ (solubility of greater than or equal to 5 wt %),⊚ (solubility of greater than or equal to 5 wt %)
CCN(CCOC(=O)NCCCCCCNC(=O)OCCN(CC)c1ccc2c(-c3ccccc3S(=O)(=O)[O-])c3ccc(=[N+](CC)CC)cc-3oc2c1)c1ccc2c(-c3ccccc3S(=O)(=O)[O-])c3ccc(=[N+](CC)CC)cc-3oc2c1 [Chemical Formula 9],◯ (solubility of greater than or equal lo 1 wt % and less than 5 wt %),◯ (solubility of greater than or equal lo 1 wt % and less than 5 wt %)
CC[N+](CC)=c1ccc2c(-c3ccccc3S(=O)(=O)[O-])c3ccc(N(C)CCCCCCN(C)c4ccc5c(-c6ccccc6S(=O)(=O)[O-])c6ccc(=[N+](CC)CC)cc-6oc5c4)cc3oc-2c1 [Chemical Formula 7],◯ (solubility of greater than or equal lo 1 wt % and less than 5 wt %),◯ (solubility of greater than or equal lo 1 wt % and less than 5 wt %)
CCN(CCOC(=O)NC1CCC(CC2CCC(NC(=O)OCCN(CC)c3ccc4c(-c5ccccc5S(=O)(=O)[O-])c5ccc(=[N+](CC)CC)cc-5oc4c3)CC2)CC1)c1ccc2c(-c3ccccc3S(=O)(=O)[O-])c3ccc(=[N+](CC)CC)cc-3oc2c1 (stereo not drawn) [Chemical Formula 16],◯ (solubility of greater than or equal lo 1 wt % and less than 5 wt %),◯ (solubility of greater than or equal lo 1 wt % and less than 5 wt %)
CC[N+](CC)=c1ccc2c(-c3ccccc3S(=O)(=O)[N-]S(=O)(=O)C(F)(F)F)c3ccc(N(C)CCCCCCN(C)c4ccc5c(-c6ccccc6S(=O)(=O)[N-]S(=O)(=O)C(F)(F)F)c6ccc(=[N+](CC)CC)cc-6oc5c4)cc3oc-2c1 [Chemical Formula 12],◯ (solubility of greater than or equal lo 1 wt % and less than 5 wt %),◯ (solubility of greater than or equal lo 1 wt % and less than 5 wt %)
C=C(C)C(=O)OCCNC(=O)OCC[N+](CC)=c1ccc2c(-c3ccccc3S(=O)(=O)[O-])c3ccc(N(CC)CCCCCCN(CC)c4ccc5c(-c6ccccc6S(=O)(=O)[O-])c6ccc(=[N+](CC)CCOC(=O)NCCOC(=O)C(=C)C)cc-6oc5c4)cc3oc-2c1 [Chemical Formula 14],⊚ (solubility of greater than or equal to 5 wt %),⊚ (solubility of greater than or equal to 5 wt %)
C=C(C)C(=O)OCCNC(=O)OCC[N+](CC)=c1ccc2c(-c3ccccc3S(=O)(=O)[O-])c3ccc(N(C)CCCCCCN(C)c4ccc5c(-c6ccccc6S(=O)(=O)[O-])c6ccc(=[N+](CC)CCOC(=O)NCCOC(=O)C(=C)C)cc-6oc5c4)cc3oc-2c1 [Chemical Formula 13],⊚ (solubility of greater than or equal to 5 wt %),⊚ (solubility of greater than or equal to 5 wt %)
C=C(C)C(=O)OCCNC(=O)OCC[N+](CC)=c1ccc2c(-c3ccccc3S(=O)(=O)[O-])c3ccc(N(CC)CCCCCCN(CC)c4ccc5c(-c6ccccc6S(=O)(=O)[O-])c6ccc(=[N+](CC)CC)cc-6oc5c4)cc3oc-2c1 [Chemical Formula 21],⊚ (solubility of greater than or equal to 5 wt %),⊚ (solubility of greater than or equal to 5 wt %)
CCN(CCCCCCN(CC)c1ccc2c(-c3ccccc3S(=O)(=O)[O-])c3ccc(=[N+](CC)CC)cc-3oc2c1)c1ccc2c(-c3ccccc3S(=O)(=O)[O-])c3ccc(=[N+](CC)CC)cc-3oc2c1 [Chemical Formula 8],◯ (solubility of greater than or equal lo 1 wt % and less than 5 wt %),◯ (solubility of greater than or equal lo 1 wt % and less than 5 wt %)
C=CC(=O)OCC[N+](CC)=c1ccc2c(-c3ccccc3S(=O)(=O)[O-])c3ccc(N(CC)CCCCCCN(CC)c4ccc5c(-c6ccccc6S(=O)(=O)[O-])c6ccc(=[N+](CC)CCOC(=O)C=C)cc-6oc5c4)cc3oc-2c1 [Chemical Formula 17],⊚ (solubility of greater than or equal to 5 wt %),⊚ (solubility of greater than or equal to 5 wt %)
CCN(CCOC(=O)NCC1CCCC(CNC(=O)OCCN(CC)c2ccc3c(-c4ccccc4S(=O)(=O)[O-])c4ccc(=[N+](CC)CC)cc-4oc3c2)C1)c1ccc2c(-c3ccccc3S(=O)(=O)[O-])c3ccc(=[N+](CC)CC)cc-3oc2c1 (stereo not drawn) [Chemical Formula 11],◯ (solubility of greater than or equal lo 1 wt % and less than 5 wt %),◯ (solubility of greater than or equal lo 1 wt % and less than 5 wt %)
C=CC(=O)OCC[N+](CC)=c1ccc2c(-c3ccccc3S(=O)(=O)[O-])c3ccc(N(CC)CCCCCCN(CC)c4ccc5c(-c6ccccc6S(=O)(=O)[O-])c6ccc(=[N+](CC)CC)cc-6oc5c4)cc3oc-2c1 [Chemical Formula 19],⊚ (solubility of greater than or equal to 5 wt %),⊚ (solubility of greater than or equal to 5 wt %)
"CCN(CC)c1ccc2c(-c3ccccc3S(=O)(=O)[O-])c3ccc(=[N+](CC)CC)cc-3oc2c1 [Chemical Formula X, reference compound]",X (solubility of less than 1 wt %),X (solubility of less than 1 wt %)
